Source: patent US7081465B2, “Alpha-substituted naphthyloxy omega-substituted alky/aryl amino-substituted alkane derivatives as agent for treatment or prophylaxis of diabetes and related metabolic disorders” (Council of Scientific and Industrial Research, priority 2003, dated 2006)
Marks after values point to notes of the source that are not given here.

Key:
normal rats = test: Hypoglycaemic activity on OGTT of normal rats (sucrose-loaded rat model); assay type: in vivo, Sprague Dawley rats; settings: 100-mg/kg, oral, 120 min post glucose load
Method: Sucrose-Loaded Rat Model:
Overnight fasted male Sprague Dawley rats were used for the sucrose-loaded experiment. Blood was collected at ‘0’ min from the tail vein of the animals. After the ‘0’ min blood collection, samples/drugs were given to the test group consisting of 5 rats by oral gavage at a dose of 100 mg/kg. Half an hour post test sample treatment, a sucrose-load of 10.0 gm/kg body weight was given to each rat. The blood was collected at 30, 60, 90 & 120 min post sucrose-load.
The antidiabetic effect of test compounds (compound no. 1 and 4) and standard drug Glybenclamide, Gliclazide on OGTT of normal rats was determined.

[1] = tested on: STZ-induced diabetic rats; test: Streptozotocin-induced diabetic rat model, single-dose effect on blood glucose; assay type: in vivo, Sprague Dawley rats; settings: 100 mg/kg; for lowering on blood glucose in STZ-induced diabetic rats: 1 to 7 hours post drug administration; for start of blood glucose lowering post drug administration: STZ-induced diabetic rats
Method: Streptozotocin-Induced Diabetic Rat Model:
Single-dose effect; Sprague Dawley strain male albino rats of average body weight 160±20 g were selected for this study. A calculated amount of the fresh solution of STZ dissolved in 100 mM citrate buffer (ph 4.5) was injected to overnight fasted rats (60 mg/Kg) intraperitoneally. Blood was checked for glucose content 48 h later by glucometer & animals showing blood glucose profile above 250 mg/dl were selected and were divided into different groups. Blood-glucose levels were again tested at 1, 2, 3, 4, 5, 6, 7 and 24 h post test sample/drug administration. Food but not water was withdrawn from the cages during the experiment.
The effect of Test compound 1 and standard antidiabetic drug Glybenclamide and gliclazide on blood glucose lowering in STZ-induced diabetic rats were determined. […] The lowering started from 1-hour that persisted up to 7-hours post drug administration.

[2] = tested on: hyperlipedemic rats (triton WR-1339); test: Lipid lowering activity, Triton model (triton WR-1339 induced hyperlipedemia); assay type: in vivo, Charles foster rats; settings: 100 mg/kg oral simultaneously with triton, plasma after 18 hrs, vs hyperlipemic group
Method: (a)Triton Model: Male Charles foster rats weighing 200–225 g were divided into control, hyperlipedemic and hyperlipedemic plus drug treated groups containing six animals each. Hyperlipedemia was induced by administration of triton WR-1339(400 mg/kg,IP). All animals were maintained on standard pellet diet and water ad lib. Test compound no. 1 and Gugulipid (standard drug) were macerated with 2% aqueous gum acacia and this suspension was fed orally at the dose of 100 mg/kg simultaneously with triton. The animals of control group received same amount of gum acacia. At the end of experiment, after 18 hrs, blood was withdrawn from retro orbital plexus and plasma was used for the assay of total cholesterol, phospholipid and triglyceride by standard spectrophotometric method. Results: Administration of triton in rats produced marked hyperlipedemia as observed by the increased levels of plasma cholesterol, phospholipid and triglyceride by 2.92, 3.32, 3.64 folds respectively (Table-1).

[3] = tested on: HFD fed dyslipemic hamsters; test: Dyslipemic hamster model (fructose rich high fat diet); assay type: in vivo, golden syrian hamster
Text: (b) Dyslipemic Hamster Model: Male golden syrian hamster weighing 120–130 gm were divided into control, dyslipemic and dyslipemic plus drug treated group of 8 animals in each.
Dyslipemia was produced by feeding with fructose rich high fat diet(HFD). Dyslipemic hamsters had free acccess to HFD and water ad. Lib for 10 days (day 1 to day 10). Compound 1 was macerated in vehicle containing 0.2% CMC+0.4% tween-80 in distilled water and fed orally at the dose of 300[…] mole/kg from day 4 to day 10 simultaneously with HFD feeding to hamster. Control animals received same amount of vehicle. At the end of the experiment on 10th day, blood was withdrawn and plasma was used for assay of triglyceride(Tg), cholesterol(chol), high density lipoprotein(HDL), glucose, glycerol and free fatty acids(FFA) by standard spectrophotometric methods on auto analyser. In another set of experiment antidyslipemic activity of fenofibrate at the dose of 1000[…] mole/kg was evaluated.

[4] = 300 μmol/kg oral day 4 to day 10, plasma on 10th day
[5] = dose 300 (μ)mole/kg, HFD fed hamsters
[6] = 1000 μmol/kg, another set of experiment
[7] = dose 1000 (μ)mole/kg, HFD fed dyslipemic hamsters

COc1ccc(NCCCOc2ccc3ccccc3c2)cc1 [Compound 1, N-(4-Methoxyphenyl)-[3-(naphthalen-2-yloxy)propyl]amine]
lowering on OGTT of normal rats (normal rats): 33.6%
lowering on blood glucose in STZ-induced diabetic rats [1]: 28.0%
start of blood glucose lowering post drug administration [1]: 1 h
% lowering of plasma lipids: Triglyceride [2]: 28%
% lowering of plasma lipids: Cholesterol ([2]; listed as Test Compound 1): 26* %
% lowering of plasma lipids: Phospholipid ([2]; listed as Test Compound 1): 33** %
% lowering of plasma lipids: Triglyceride ([2]; listed as Test Compound 1): 28* %
per cent change in CHOL [3, 4]: −8 per cent
per cent change in GLU [3, 4]: −31** per cent
per cent change in GLY [3, 4]: −14 per cent
per cent change in HDL [3, 4]: +15 per cent
per cent change in TG [3, 4]: −48** per cent
change in FFA levels [3, 5]: No significant change
increase in plasma HDL [3, 5]: 15%
reduced level of plasma Tg [3, 5]: 48%
reduced level of plasma chol [3, 5]: 8%
reduced level of plasma glucose [3, 5]: 31%
reduced level of plasma glycerol [3, 5]: 14%

CC(C)OC(=O)C(C)(C)Oc1ccc(C(=O)c2ccc(Cl)cc2)cc1 [Fenofibrate]
per cent change in CHOL [3, 6]: −30** per cent
per cent change in FFA [3, 6]: −53** per cent
per cent change in GLU [3, 6]: −33** per cent
per cent change in GLY [3, 6]: −52** per cent
per cent change in HDL [3, 6]: +33** per cent
per cent change in TG [3, 6]: −77** per cent
increase in plasma HDL [3, 7]: 33%
lowering in plasma FFA [3, 7]: 53%
lowering in plasma Tg [3, 7]: 77%
lowering in plasma chol [3, 7]: 30%
lowering in plasma glucose [3, 7]: 33%
lowering in plasma glycerol [3, 7]: 52%

Cc1ccc(S(=O)(=O)NC(=O)NN2CC3CCCC3C2)cc1 (stereo not drawn) [Gliclazide]
lowering on OGTT of normal rats (normal rats): 44.8%
lowering on blood glucose in STZ-induced diabetic rats [1]: 27.7%
start of blood glucose lowering post drug administration [1]: 1 h

COc1ccc(Cl)cc1C(=O)NCCc1ccc(S(=O)(=O)NC(=O)NC2CCCCC2)cc1 [Glybenclamide]
lowering on OGTT of normal rats (normal rats): 33.9%
lowering on blood glucose in STZ-induced diabetic rats [1]: 32.8%
start of blood glucose lowering post drug administration [1]: 1 h
